Experimental data as given in patent US11542475B2, “3D microphysiologic system” (Northwestern University, priority 2014, dated 2023).

Experiments:
Format in all cases: cell-based
p53 stabilization in FTE = assay: 3D human fimbriae culture: p53 immunohistochemistry; conditions: 2 and 7 days treatment, n=8
Method: (§1) Tissues were micro-dissected in alpha-MEM (Gibco, Carlsbad, Calif.) with 1% penicillin-streptomycin (Invitrogen, Carlsbad, Calif.). Individual fimbriae were separated into ˜50 mm^3 pieces. A portion of the tissue was fixed in 2% paraformaldehyde for use as an uncultured control. For optimization studies, fimbriae were cultured without matrix, encapsulated in 0.5% alginate, or encapsulated in 0.5% alginate with 1 mg/ml collagen and 0.1% fibronectin, as previously described for murine cultures (King et al. J Vis Exp. 2011.; herein incorporated by reference in its entirety). For subsequent treatments, 0.5% alginate encapsulated fimbriae were randomly assigned to treatment groups, with at least five fimbriae per condition, per patient, in a 24-well plate containing alpha-MEM and 1% penicillin-streptomycin. […] Prior to fixation, fimbriae were labeled with 10 μM bromodeoxyurine (BrdU, Sigma-Aldrich) for 24 hours to denote proliferating cells. Fimbriae cultures were fixed (2% paraformaldehyde) followed by dehydration in ethanol and xylene, and embedment in paraffin.
Sections (5 μm) were cut and stained via hematoxylin and eosin for morphological analysis or immunohistochemistry was performed to localize proteins of interest as previously described (King et al. Endocr Relat Cancer. 2011. 18:627-42.; herein incorporated by reference in its entirety). Slides were rehydrated through an ethanol gradient, prior to 0.1M sodium citrate retrieval and peroxidase block. […]
Immunohistochemistry images were taken via a Nikon E600 microscope, DXM1200 digital camera and NIS Elements software (Nikon Instruments, Melville, N.Y.). […] BrdU sections were imaged and epithelial cells (CK8 positive) were quantified for proliferation via ImageJ software (NIH, Bethesda, Md.). At least three fimbriae with 200 or more FTE were quantified for each treatment. Analysis of p53 staining was similar, with at least three fimbriae per treatment, per patient analyzed. Samples with p53 expression were quantified utilizing adjacent sections stained for the secretory cell marker PAX8 in a qualitative manner as described.

[1] = tested on: human fallopian tube epithelium; assay: Fallopian epithelia cilia beating quantification; conditions: 7 days culture; P4 added to E2
Method: Human fallopian tissue was obtained from routine hysterectomies from women in their reproductive years (ages range from 26 to 50 years old) and who had not undergone exogenous hormonal treatment for at least three months prior to surgery. Informed consent was obtained from each patient and approval granted by the ethics committee of the Northwestern University. Human fallopian tissue was kept in the DMEM/F12 medium with 10% FBS on ice and processed within 24 hours. The tissue was washed with warm PBS solution two times before being transferred into warm dissection medium (Liebowitz 15 with 0.5% P/S and 10% FBS). After cleaning connective tissue from outside of the fallopian tissue, the fallopian tube was cut open and the inner epithelia layer was mechanically dissected using forceps. […]
Fallopian epithelia layers were cultured in estradiol (E2) 1 nM, E2 1 nM+progesterone (P4) 10 nM, E2 0.1 nM+P4 50 nM or with solvent only negative control for 7 days. Cilia beating movies were acquired using an Andor Spinning Disk Confocal with 5 ms exposure time and 5 ms readout time. […] The Multiple Kymograph plugin for the NIH ImageJ software was used to quantify cilia beating frequency. In each movie, 8 clusters of cilia were picked for the cilia beating quantification.

[2] = tested on: human fallopian fimbriae FTE; assay: 3D human fimbriae culture: FTE proliferation by BrdU labeling; conditions: insulin 5 μg/ml (ITS), H2O2 1 mM, E2 10 nM, n=6
Method: as §1
Sections (5 μm) were cut and stained via hematoxylin and eosin for morphological analysis or immunohistochemistry was performed to localize proteins of interest as previously described (King et al. Endocr Relat Cancer. 2011. 18:627-42.; herein incorporated by reference in its entirety). Slides were rehydrated through an ethanol gradient, prior to 0.1M sodium citrate retrieval and peroxidase block. Tissues probed for BrdU were exposed to 4M HCl and 0.1M NaB4O7(Fisher Scientific) to denature DNA. All immunohistochemical reagents were obtained from Vector Laboratories, Inc (Burlingame, Calif.) unless otherwise stated. Tissues were blocked in 3% bovine serum albumin (Gemini, West Sacramento, Calif.)-TBS/10% serum and incubated with a primary antibody 1:50 acetylated tubulin (Cell Signaling, Cambridge, Mass.); 1:200 BrdU (AbCam, Cambridge, Mass.); 1:100 cytokeratin 8 (CK8, Developmental Studies Hybridoma Bank, Iowa City, Iowa); 1:50 p53 (Santa Cruz, Santa Cruz, Calif.); 1:100 PAX8 (Proteintech, Chicago, Ill.); 1:100 pH2AX (Cell Signaling); or 1:75 PR (Santa Cruz)) overnight at 4°. Tissues were washed in TBS-0.1% Tween and incubated with a secondary antibody (1:200), before being probed with ABC peroxidase standard, followed by detection with 3,3′-diaminobenzidine (DAB) and counterstained with hematoxylin.
Immunohistochemistry images were taken via a Nikon E600 microscope, DXM1200 digital camera and NIS Elements software (Nikon Instruments, Melville, N.Y.). For proliferation analysis, concurrent sections were stained for CK8 and BrdU. BrdU sections were imaged and epithelial cells (CK8 positive) were quantified for proliferation via ImageJ software (NIH, Bethesda, Md.). At least three fimbriae with 200 or more FTE were quantified for each treatment. […] Samples with p53 expression were quantified utilizing adjacent sections stained for the secretory cell marker PAX8 in a qualitative manner as described.

[3] = tested on: IGF1 secretion by human fallopian epithelium; assay: hIGF1 immunoblot of fallopian epithelium conditioned medium
Method: Human fallopian tissue was obtained from routine hysterectomies from women in their reproductive years (ages range from 26 to 50 years old) and who had not undergone exogenous hormonal treatment for at least three months prior to surgery. Informed consent was obtained from each patient and approval granted by the ethics committee of the Northwestern University. Human fallopian tissue was kept in the DMEM/F12 medium with 10% FBS on ice and processed within 24 hours. The tissue was washed with warm PBS solution two times before being transferred into warm dissection medium (Liebowitz 15 with 0.5% P/S and 10% FBS). After cleaning connective tissue from outside of the fallopian tissue, the fallopian tube was cut open and the inner epithelia layer was mechanically dissected using forceps. […] Tissue was cultured on 0.4 μm pore Millicell inserts (PICM03050, EMD Millipore Co, Billerica, Mass., USA) twelve-well plates with culture medium in a 37° C. and 5% CO2 incubator. Estrogen (E2) and progesterone (P4) used in tissue culture experiments were purchased from Sigma (St. Louis, Mo.).
Cultured human fallopian epithelia layers were homogenized with a minipestle in ice-cold lysis buffer (20 mM Tris-HCl, pH 8.0, 137 mM NaCl, 10% glycerol, 1% NP-40, 2 mM EDTA). Lysate normalized for protein content was loaded into NuPAGE 4-12% gradient Bis-Tris precast SDS-PAGE gels and transferred to a nitrocellulose membrane (Life Technologies, Carlsbad, Calif., USA). Blots were probed by polyclonal anti-OVGP1 antibody (LsBio, Cambridge, Mass.) overnight in 4° C. followed by anti-rabbit secondary antibody conjugated to horseradish peroxidase (Zymed, San Francisco, Calif.). Proteins were detected by ECL primer (GE HealthCare Life Sciences, Pittsburgh, Pa.) and exposed to X-ray film (Kodak, Rochester, N.Y.). The same blot was stripped using stripping buffer (Thermo Scientific, Hanover Park, Ill.) and re-probed with monoclonal anti-α-tubulin (Sigma, St. Louis, Mo.) followed by an anti-mouse secondary antibody conjugated to horseradish peroxidase. NIH ImageJ Imaging Software was used to quantify the density of western blot bands. Conditioned medium from fallopian epithelia cultures was collected and probed via western blot analysis using a polyclonal anti-hIGF1 antibody (abcam, Cambridge, Mass.). The blot was detected by the same method described above.
Fallopian epithelia layers cultured on […] inserts were pre-cultured in the alpha-MEM with 0.3% BSA, ITS and 1% P/S medium for two days. Cell culture medium was collected for the glucose ELISA assay (abcam, Cambridge, Mass.). Medium was diluted 1:500 and ELISA was performed according to the protocol provided by the kit. […]

For `C[C@]12CC[C@@H]3c4ccc(O)cc4CC[C@H]3[C@@H]1CC[C@@H]2O` [E2, estradiol], the p53 stabilization (p53 stabilization in FTE) was “no factor notably induced p53 stabilization”, the “cilia beating frequency (CBF)” value [1] was “significantly increased” and the “FTE proliferation (percentage of total FTE cells, BrdU)” value ([2]; 2 days in culture) was 5.2±2.3%. The “FTE proliferation (percentage of total FTE cells, BrdU)” value ([2]; 7 days in culture) was 2.4±0.5%, the IGF1 secretion ([3]; 7 days culture, 1 nM E2, P4 added to E2) was “induced” and the IGF1 secretion ([3]; 28 days stepwise E2 and P4 treatment, P4 in the presence of E2) was “stimulated”.
